{"source": "patent US12239646B2", "about": "“Cancer diagnostic and treatment” (DANA-FARBER CANCER INSTITUTE, INC., priority 2017, dated 2025)", "key": {"[1]": {"tested_on": "Fusobacterium species", "details": "cited from earlier work; for general susceptibility of the species: background statement on Fusobacterium"}, "[2]": {"tested_on": "F. nucleatum strains isolated from COCA36 primary tumor and derived xenografts", "experiment": "Antibiotic sensitivity testing (E-test) of clinical F. nucleatum isolates", "type": "cell-based, Fusobacterium nucleatum", "details": "for MIC: Fusobacterium nucleatum", "procedure": "FIG. 14: Antibiotic sensitivity testing (E-test) of clinical F. nucleatum isolates. E-test on F. nucleatum strains isolated from COCA36 primary tumor and derived xenografts. All E-tests were carried out in triplicate on both FAA agar. The antibiotics tested were metronidazole (MZ), cefoxitin (FX) and imipenem (IP). All F. nucleatum strains tested were sensitive to cefoxitin and metronidazole in vitro: test range was 0.016 to 256 ug/ml. […] The F. nucleatum strains tested were resistant/hetero-resistant to imipenem in vitro.\nA 1 McFarland solution, in TSB, was prepared from Fusobacterium strains grown for 24-48 hours on FAA under anaerobic conditions. Using a sterile cotton swab, each Fusobacterium strain were inoculated onto antibiotic free blood agar (FAA) and E-test strip (bioMérieux) for Metronidazole (MZ), Clindamycin (CM), Cefoxitin (FX) and Imipenem (IP) were incubated for up to 72 hours and sensitivity checked after 48 hours. Each sensitivity assay was conducted in triplicate. An FAA blood plate inoculated with each Fusobacterium strain, but without the E-test strip, was used as a growth control."}, "[3]": {"tested_on": "ETBF induced murine colonic tumors", "details": "DeStefano Shields et al. 2016; cited from earlier work"}, "[4]": {"tested_on": "Fusobacterium nucleatum", "experiment": "Pilot compound screen for inhibition of Fusobacterium growth (BacTiter Glow luminescence)", "type": "cell-based", "details": "32 μM, in duplicate, 48 hours anaerobic; hit cut-off 3 SD from mean of neutral controls", "procedure": "FIG. 16 depicts determining threshold to identify inhibitor hits. Neutral Control=untreated F. nucleatum. Inhibitor Control=F. nucleatum treated with metronidazole. 3 SD from mean of neutral controls=−86% inhibition hit cut-off.\nFIG. 17 depicts identifying compounds that inhibit Fusobacterium growth. […] 3 SD from mean of neutral controls=−86% inhibition hit cut-off. 34 inhibitory compounds identified.\nA pilot screen containing 1,846 compounds (in duplicate), at [32 μM] was carried out. Approximately 1-2×10^6 Fusobacterium nucleatum cells/ml was seeded and incubated anaerobically for 48 hours. The read out was by the addition of BacTiter Glow and luminescence read out.\n(§1) A method for determining the threshold to identify inhibitor hits was established and carried out (FIG. 16). […] Validation of inhibitor hits and related compounds was carried out and dose response was determined for 5-FU, carmofur, and tegafur (FIG. 18). Validation of inhibitor hits was also carried out with additional patient CRC isolates of Fusobacterium (FIG. 19). […] Applicants also investigated whether the presence of Fusobacterium in colorectal tumors can explain patient response to 5-FU-based therapies. Data of 91 patient colorectal adenocarcinoma tumors with recurrence were obtained by Fusobacterium culture and bacterial 16s rRNA sequencing analysis."}, "[5]": {"tested_on": "patient colorectal cancer isolates of Fusobacterium nucleatum and Fusobacterium necrophorum", "experiment": "Validation with additional patient CRC isolates of Fusobacterium", "type": "cell-based", "details": "compared with plasma levels of treated patients (Takimoto et al. 1999)", "procedure": "FIG. 19 depicts validation of with additional patient CRC isolates of Fusobacterium. […] (Takimoto et al., Clinical cancer research: an official journal of the American Association for Cancer Research 5, 1347-1352 (1999)).\nas §1"}, "[6]": {"tested_on": "Fusobacterium-positive colorectal tumors", "experiment": "Recurrence/metastasis of patient colorectal adenocarcinoma tumors by Fusobacterium status and 5-FU treatment", "details": "91 patient tumors with recurrence data; 43 patients treated with 5-FU or a 5-FU prodrug; p<0.05", "procedure": "FIG. 20 illustrates a comparison between tumors treated with 5-FU or a 5-FU prodrug (right panel) and tumors with no treatment (left panel). A total of 91 patient colorectal adenocarcinoma tumors with recurrence data were analyzed by Fusobacterium culture and bacterial 16s rRNA sequencing.\nas §1"}, "[7]": {"details": "during chemotherapy for adenocarcinoma of the small bowel; cited from earlier work"}, "[8]": {"tested_on": "Fusobacterium-positive PDX tumors (COCA36)", "experiment": "In vivo metronidazole trial, tumor volume of Fusobacterium-positive PDX", "parameters": "species or system nude mice (Nu/Nu)", "details": "100 mg/kg/day oral gavage, approximately 3 weeks, vs vehicle; p=0.0005", "procedure": "Animals bearing tumors (with volumes <250 mm^3) were randomized into statistically identical cohorts and treated with 100 mg/kg/day of metronidazole (Sigma Aldrich, USA), (suspension in 0.5% methylcellulose) or with the vehicle alone (0.5% methylcellulose) by oral gavage, daily, for approximately 3 weeks.\n(§2) Nu/nu mice were raised in the specific-pathogen-free (SPF) conditions with autoclaved food and water. For both patient and HT-29 cell derived xenografts, tumor size was measured by caliper every Monday, Wednesday and Friday each week. Tumor volume was calculated using the formula: Volume=0.5×L×W^2 and growth rate was measured by calculating the percentage increase in volume. Tumor measurements were carried out in a blinded approach. Mouse body weight was recorded every 3 to 7 days. Mice were euthanized when the tumor diameter reached 2 cm or following the 3 weeks of drug treatment. Tissues were cryopreserved in Bambanker cell freezing media (Wako Chemicals USA) or snap frozen in liquid nitrogen and stored at −80° C. PDX experiments were performed with 22 (untreated group) and 24 (treated group) mice at timepoint zero, over three independent trials. HT-29 derived xenograft experiments were performed with 20 (untreated group) and 19 (treated group) mice at timepoint zero, over two independent trials. […]"}, "[9]": {"tested_on": "Fusobacterium-free xenografts derived from HT-29 colon adenocarcinoma cells", "experiment": "In vivo metronidazole trial, Fusobacterium-free HT-29 cell line xenograft", "parameters": "species or system nude mice (Nu/Nu)", "details": "100 mg/kg/day oral gavage, approximately 3 weeks, vs vehicle; p>0.05 at all timepoints", "procedure": "For HT-29 cell line xenograft experiments, approximately 1×10^6 HT29 cells were suspended in PBS, mixed 1:1 with Matrigel (BD Biosciences), and injected subcutaneously into the flanks of nude mice (Nu/Nu; Taconic) in a final volume of 100 μL. Following 10-14 days post implantation, mice were randomized into statistically identical cohorts and treated with 100 mg/kg/day of metronidazole (suspension in 0.5% methylcellulose) or with vehicle alone by oral gavage daily for approximately 3 weeks.\nas §2, with “trials.” for “trials. HT-29 derived xenograft experiments were performed with 20 (untreated group) and 19 (treated group) mice at timepoint zero, over two independent trials.”"}, "[10]": {"tested_on": "Fusobacterium", "experiment": "Fusobacterium-targeted qPCR on PDX tissue after treatment", "type": "in vivo, Fusobacterium species in PDX (COCA36) in Nu/Nu mice", "details": "PDX COCA36, metronidazole vs vehicle; p=0.002", "procedure": "A custom TaqMan primer/probe set was used to amplify Fusobacterium species DNA (Integrated DNA technologies, CA) as previously described (28). The cycle threshold (Ct) values for Fusobacterium species were normalized to the amounts of human genomic DNA in each reaction by using a primer and probe set for the prostaglandin transporter (PGT) reference gene, and the fold difference (2^−ΔCt) in Fusobacterium load in tumor tissue was calculated as described before (8). Each reaction contained 100 ng of genomic DNA and was assayed in triplicate in 20 μL reactions containing 1× final concentration TaqMan Universal Master Mix (Applied Biosystems) and each TaqMan Gene Expression Assay (Applied Biosystems), in a 96-well optical PCR plate. Amplification and detection of DNA was performed with the ABI 7300 Real-Time PCR System (Applied Biosystems) using the following reaction conditions: 10 min at 95° C. and 42 cycles of 15 s at 95° C. and 1 min at 60° C. Cycle thresholding (Ct) was calculated using the automated settings (Applied Biosystems). The primer and probe sequences for each TaqMan Gene Expression Assay were as follows (SEQ ID. 1-6): Fusobacterium species forward primer, 5′-[…]-3′; Fusobacterium species reverse primer, 5′-[…]-3′; Fusobacterium species FAM probe, 5′-[…]-3′. […]"}, "[11]": {"tested_on": "PDX tumors (COCA36), tumor cell proliferation", "experiment": "In vivo BrdU incorporation assay (IHC) of PDX tumors", "parameters": "species or system nude mice (Nu/Nu)", "details": "n=6 per arm, three weeks treatment vs vehicle, p=0.0015", "procedure": "Bromodeoxyuridine (BrdUrd) solution (10 mg/mL, 0.2 mL/mouse) was administered via intraperitoneal injection 16 hours after the last dose of metronidazole or vehicle. After 2 additional hours, mice were sacrificed and tumors were fixed in 10% formalin for immunohistochemistry (IHC) analysis. A total of 6 animals per arm, that were treated with metronidazole or the vehicle for three weeks were randomly selected, over two independent trials, for BrdU incorporation analysis. IHC was performed on 4-μm sections of formalin-fixed paraffin-embedded samples. Tissue sections were deparaffinized and rehydrated, and antigen retrieval was performed in 10 mmol/L citrate buffer (pH 6.0) in a 750 W microwave oven at […] for 30 minutes for BrdU staining, BrdU primary antibody (BD Biosciences, #347580) was added at a dilution of 1:100 and incubated for 1 hour at room temperature. Sections were further processed with horseradish peroxidase-conjugated secondary antibody. The reaction was detected by 3,3-diaminobenzidine and hematoxylin staining. Images were obtained with an Olympus CX41 microscope and QCapture software (QImaging)."}, "[12]": {"tested_on": "COCA36F3 F. nucleatum (colorectal cancer isolate)", "experiment": "Validation of inhibitor hits, dose response curves", "type": "cell-based, Fusobacterium nucleatum", "details": "8-point, 2-fold dilutions, range 30-0.23 μM", "procedure": "FIG. 18 depicts validation of inhibitor hits (and related compounds). […] Validation/dose plates: 8-point, 2-fold dilutions, range 30-0.23 μM. Dose Response Curves [0.32-30 μM]: COCA36F3 F. nucleatum (colorectal cancer isolate).\nas §1"}, "[13]": {"details": "E-test on FAA agar, triplicate, test range 0.016 to 256 ug/ml, no bacterial growth at 0.016 ug/ml, read-out: MIC"}}, "note": "“Also recorded” adds a separate entry of the source. Read-outs that look alike come from different tables or passages of the source."}
{"compound": "penicillin", "values": [{"measurement": "general susceptibility of the species", "setting": "[1]", "value": "susceptible"}]}
{"compound": "CO[C@@]1(NC(=O)Cc2cccs2)C(=O)N2C(C(=O)O)=C(COC(N)=O)CS[C@@H]21", "note": "[cefoxitin]", "values": [{"measurement": "in vitro antibiotic sensitivity (sensitive / resistant)", "setting": "[2]; E-test on FAA agar, triplicate", "value": "sensitive"}, {"measurement": "MIC", "setting": "[2]; [13]", "value": "< 0.016", "unit": "µg/mL"}, {"measurement": "tumorigenesis in ETBF induced murine colonic tumors", "setting": "[3]", "value": "reduction in tumorigenesis"}]}
{"compound": "O=C(N[C@H](CO)[C@H](O)c1ccc([N+](=O)[O-])cc1)C(Cl)Cl", "note": "[chloramphenicol]", "values": [{"measurement": "general susceptibility of the species", "setting": "[1]", "value": "susceptible"}]}
{"compound": "O=c1[nH]cc(F)c(=O)[nH]1", "note": "[5-FU, 5-fluorouracil]", "values": [{"measurement": "inhibition of F. nucleatum growth in pilot screen", "setting": "[4]", "value": "significantly inhibit F. nucleatum growth; also recorded: potent inhibitor of Fusobacterium growth"}, {"measurement": "inhibition of Fusobacterium growth, patient CRC isolates", "setting": "[5]", "value": "inhibits Fusobacterium growth at levels comparable to achievable doses in plasma of treated patients; also recorded: potent inhibitors of Fusobacterium growth; also recorded: within a range comparable to patient plasma levels when receiving 5-fluorouracil infusion"}, {"measurement": "inhibition of Fusobacterium growth, patient CRC isolates", "setting": "[5]; listed as 5-Fluorouracil", "value": "inhibits Fusobacterium growth at levels comparable to achievable doses in plasma of treated patients"}, {"measurement": "recurrence/metastasis of Fusobacterium-positive colorectal tumors", "setting": "[6]", "value": "less likely to develop recurrence/metastasis"}, {"measurement": "cardiotoxicity", "setting": "[7]", "value": "associated with cardiotoxicity"}]}
{"compound": "Cc1ncc([N+](=O)[O-])n1CCO", "note": "[metronidazole]", "values": [{"measurement": "in vitro antibiotic sensitivity (sensitive / resistant)", "setting": "[2]; E-test on FAA agar, triplicate", "value": "sensitive"}, {"measurement": "MIC", "setting": "[2]; [13]", "value": "< 0.016", "unit": "µg/mL"}, {"measurement": "MIC", "setting": "[2]; F. nucleatum isolates from the PDX, read-out: minimum inhibitory concentration", "value": "< 0.016", "unit": "µg/mL"}, {"measurement": "tumor growth (percentage tumor volume increase), Fusobacterium-positive PDX", "setting": "[8]", "value": "reduces tumor growth rate; also recorded: statistically significant decrease in tumor growth"}, {"measurement": "tumor growth (percentage tumor volume increase), Fusobacterium-free HT-29 xenograft", "setting": "[9]", "value": "no significant decrease in tumor growth; also recorded: not statistically significant"}, {"measurement": "Fusobacterium load in the tumor tissue", "setting": "[10]", "value": "significant decrease in Fusobacterium load; also recorded: decreases Fusobacterium load"}, {"measurement": "tumor cell proliferation (BrdU incorporation)", "setting": "[11]", "value": "reduces tumor growth rate and cancer cell proliferation; also recorded: significant reduction in tumor cell proliferation; also recorded: decreased cancer cell proliferation"}, {"measurement": "inhibition of F. nucleatum growth in pilot screen", "setting": "[4]", "value": "significantly inhibit F. nucleatum growth"}, {"measurement": "reported sensitivity of Fusobacteria", "setting": "[1]; Lofmark et al. 2010", "value": "highly sensitive"}]}
{"compound": "CCCCCCNC(=O)n1cc(F)c(=O)[nH]c1=O", "note": "[carmofur]", "values": [{"measurement": "inhibition of Fusobacterium growth, dose response validation", "setting": "[12]", "value": "even more potent in killing Fusobacterium than the active drug 5-FU"}, {"measurement": "inhibition of Fusobacterium growth, dose response validation", "setting": "[12]; listed as Carmofur", "value": "potent inhibitor of Fusobacterium growth"}]}
{"compound": "CC[C@H]1OC(=O)[C@H](C)[C@@H](O[C@H]2C[C@@](C)(OC)[C@@H](O)[C@H](C)O2)[C@H](C)[C@@H](O[C@@H]2O[C@H](C)C[C@H](N(C)C)[C@H]2O)[C@](C)(O)C[C@@H](C)C(=O)[C@H](C)[C@@H](O)[C@]1(C)O", "note": "[erythromycin]", "values": [{"measurement": "general susceptibility of the species", "setting": "[1]", "value": "resistant"}]}
